Data taken from PubChem BioAssay (NCI).
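Assay format: 96-well plates, 48-hour exposure. TGI: concentration producing complete growth inhibition.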

What was measured:
Test in all cases: NCI-60 cell line screen, 48 h
HOP-92 NSCLC = tested on: HOP-92 NSCLC
DMS 114 small cell lung = tested on: DMS 114 small cell lung
UACC-257 melanoma = tested on: UACC-257 melanoma
NCI-H522 lung = tested on: NCI-H522 lung
DMS 273 small cell lung = tested on: DMS 273 small cell lung
HCT-15 colon = tested on: HCT-15 colon
U251 CNS = tested on: U251 CNS
NCI-H226 lung = tested on: NCI-H226 lung
RXF-631 renal = tested on: RXF-631 renal
SK-MEL-5 melanoma = tested on: SK-MEL-5 melanoma
EKVX NSCLC = tested on: EKVX NSCLC
OVCAR-4 ovarian = tested on: OVCAR-4 ovarian
SK-MEL-28 melanoma = tested on: SK-MEL-28 melanoma
SK-OV-3 ovarian = tested on: SK-OV-3 ovarian
SN12C renal = tested on: SN12C renal
OVCAR-3 ovarian = tested on: OVCAR-3 ovarian
OVCAR-5 ovarian = tested on: OVCAR-5 ovarian
RXF 393 renal = tested on: RXF 393 renal
SF-295 CNS = tested on: SF-295 CNS
SF-539 CNS = tested on: SF-539 CNS
HCC-2998 colon = tested on: HCC-2998 colon
RPMI-8226 leukemia = tested on: RPMI-8226 leukemia
NCI-H23 lung = tested on: NCI-H23 lung
UO-31 renal = tested on: UO-31 renal
UACC-62 melanoma = tested on: UACC-62 melanoma
XF 498 CNS = tested on: XF 498 CNS
SNB-19 CNS = tested on: SNB-19 CNS
TK-10 renal = tested on: TK-10 renal
MALME-3M melanoma = tested on: MALME-3M melanoma
IGROV1 ovarian = tested on: IGROV1 ovarian
LXFL 529 NSCLC = tested on: LXFL 529 NSCLC
M14 melanoma = tested on: M14 melanoma
KM12 colon = tested on: KM12 colon
HOP-62 NSCLC = tested on: HOP-62 NSCLC
A498 renal = tested on: A498 renal
SK-MEL-2 melanoma = tested on: SK-MEL-2 melanoma
KM20L2 colon = tested on: KM20L2 colon
HCT-116 colon = tested on: HCT-116 colon
SNB-78 CNS = tested on: SNB-78 CNS
HL-60(TB) leukemia = tested on: HL-60(TB) leukemia
K-562 leukemia = tested on: K-562 leukemia
MOLT-4 leukemia = tested on: MOLT-4 leukemia
SR leukemia = tested on: SR leukemia
LOX IMVI melanoma = tested on: LOX IMVI melanoma
NCI-H460 lung = tested on: NCI-H460 lung
786-0 renal = tested on: 786-0 renal
COLO 205 colon = tested on: COLO 205 colon
SW-620 colon = tested on: SW-620 colon
OVCAR-8 ovarian = tested on: OVCAR-8 ovarian
SNB-75 CNS = tested on: SNB-75 CNS
CCRF-CEM leukemia = tested on: CCRF-CEM leukemia
DLD-1 colon = tested on: DLD-1 colon
A549 NSCLC = tested on: A549 NSCLC
ACHN renal = tested on: ACHN renal
CAKI-1 renal = tested on: CAKI-1 renal
SF-268 CNS = tested on: SF-268 CNS
HT29 colon = tested on: HT29 colon
M19-MEL melanoma = tested on: M19-MEL melanoma

**Q.** Which results are given for `CC1CC(C)C2OC2(C)C[C@H](C)C(=O)NC(C)C(=O)N(C)[C@H](Cc2c(Br)[nH]c3ccccc23)C(=O)N[C@@H](c2ccc(O)cc2)CC(=O)O1` (stereo not given in full)?
**A.** TGI (HOP-92 NSCLC): 638 nM; TGI (DMS 114 small cell lung): 2630 nM; TGI (UACC-257 melanoma): 13.3 µM; TGI (NCI-H522 lung): 856 nM; TGI (DMS 273 small cell lung): 83.1 µM; TGI (HCT-15 colon): > 100 µM; TGI (U251 CNS): 2980 nM; TGI (NCI-H226 lung): 2230 nM; TGI (RXF-631 renal): > 100 µM; TGI (SK-MEL-5 melanoma): 17.1 µM; TGI (EKVX NSCLC): 75.8 µM; TGI (OVCAR-4 ovarian): 1090 nM; TGI (SK-MEL-28 melanoma): 12.2 µM; TGI (SK-OV-3 ovarian): 3.04 µM; TGI (SN12C renal): > 100 µM; TGI (OVCAR-3 ovarian): 9.61 µM; TGI (OVCAR-5 ovarian): 18.8 µM; TGI (RXF 393 renal): 4.81 µM; TGI (SF-295 CNS): 31.3 µM; TGI (SF-539 CNS): 383 nM; TGI (HCC-2998 colon): 505 nM; TGI (RPMI-8226 leukemia): 5.43 µM; TGI (NCI-H23 lung): > 40.4 µM; TGI (UO-31 renal): 27.3 µM; TGI (UACC-62 melanoma): 14.4 µM; TGI (XF 498 CNS): 4.31 µM; TGI (SNB-19 CNS): 544 nM; TGI (TK-10 renal): 5.44 µM; TGI (MALME-3M melanoma): 14 µM; TGI (IGROV1 ovarian): 683 nM; TGI (LXFL 529 NSCLC): 13.3 µM; TGI (M14 melanoma): 19.5 µM; TGI (KM12 colon): > 100 µM; TGI (HOP-62 NSCLC): 1400 nM; TGI (A498 renal): 1790 nM; TGI (SK-MEL-2 melanoma): 876 nM; TGI (KM20L2 colon): > 50.1 µM; TGI (HCT-116 colon): > 33.1 µM; TGI (SNB-78 CNS): 763 nM; TGI (HL-60(TB) leukemia): 783 nM; TGI (K-562 leukemia): > 77.4 µM; TGI (MOLT-4 leukemia): 57.3 µM; TGI (SR leukemia): > 100 µM; TGI (LOX IMVI melanoma): 1660 nM; TGI (NCI-H460 lung): > 100 µM; TGI (786-0 renal): 19.1 µM; TGI (COLO 205 colon): 145 nM; TGI (SW-620 colon): > 90.2 µM; TGI (OVCAR-8 ovarian): > 52.7 µM; TGI (SNB-75 CNS): 2320 nM; TGI (CCRF-CEM leukemia): > 65 µM; TGI (DLD-1 colon): > 100 µM; TGI (A549 NSCLC): > 100 µM; TGI (ACHN renal): 27.2 µM; TGI (CAKI-1 renal): 4.71 µM

**Q.** `Cc1cc(C)c(C(=O)O)c(SSc2cc(C)cc(C)c2C(=O)O)c1` was tested. Which TGI (HOP-92 NSCLC) did it give?
**A.** Its TGI is > 100000 nM.

**Q.** What about the TGI (DMS 114 small cell lung) of the same compound?
**A.** The TGI was > 100000 nM.

**Q.** And the TGI (UACC-257 melanoma)?
**A.** The TGI was > 100 µM.

**Q.** And the TGI (NCI-H522 lung)?
**A.** Its TGI is > 100000 nM.

**Q.** And the TGI (DMS 273 small cell lung)?
**A.** Its TGI is > 100 µM.

**Q.** And the TGI (U251 CNS)?
**A.** The TGI was > 100000 nM.

**Q.** What about the TGI (NCI-H226 lung) of the same compound?
**A.** The TGI was > 100000 nM.

**Q.** And the TGI (RXF-631 renal)?
**A.** Its TGI is > 100 µM.

**Q.** What about the TGI (SK-MEL-5 melanoma) of the same compound?
**A.** Its TGI is > 100 µM.

**Q.** And the TGI (EKVX NSCLC)?
**A.** Its TGI is > 100 µM.

**Q.** What about the TGI (OVCAR-4 ovarian) of the same compound?
**A.** The TGI was > 100000 nM.

**Q.** And the TGI (SK-MEL-28 melanoma)?
**A.** The TGI was > 100 µM.

**Q.** And the TGI (SK-OV-3 ovarian)?
**A.** Its TGI is > 100 µM.

**Q.** What about the TGI (SN12C renal) of the same compound?
**A.** The TGI was > 100 µM.

**Q.** And the TGI (OVCAR-5 ovarian)?
**A.** Its TGI is > 100 µM.

**Q.** What about the TGI (RXF 393 renal) of the same compound?
**A.** Its TGI is > 100 µM.

**Q.** What about the TGI (SF-268 CNS) of the same compound?
**A.** The TGI was > 100 µM.

**Q.** And the TGI (SF-295 CNS)?
**A.** The TGI was > 100 µM.

**Q.** What about the TGI (SF-539 CNS) of the same compound?
**A.** The TGI was > 100000 nM.

**Q.** And the TGI (NCI-H23 lung)?
**A.** The TGI was > 100 µM.

**Q.** What about the TGI (UO-31 renal) of the same compound?
**A.** Its TGI is > 100 µM.

**Q.** And the TGI (UACC-62 melanoma)?
**A.** The TGI was > 100 µM.

**Q.** What about the TGI (XF 498 CNS) of the same compound?
**A.** The TGI was > 100 µM.

**Q.** And the TGI (SNB-19 CNS)?
**A.** Its TGI is > 100000 nM.

**Q.** And the TGI (TK-10 renal)?
**A.** The TGI was > 100 µM.

**Q.** What about the TGI (MALME-3M melanoma) of the same compound?
**A.** Its TGI is > 100 µM.

**Q.** And the TGI (LXFL 529 NSCLC)?
**A.** Its TGI is > 100 µM.

**Q.** And the TGI (KM12 colon)?
**A.** Its TGI is > 100 µM.

**Q.** And the TGI (HT29 colon)?
**A.** The TGI was > 100 µM.

**Q.** What about the TGI (HOP-62 NSCLC) of the same compound?
**A.** Its TGI is > 100000 nM.

**Q.** And the TGI (A498 renal)?
**A.** The TGI was > 100000 nM.

**Q.** What about the TGI (SK-MEL-2 melanoma) of the same compound?
**A.** Its TGI is > 100000 nM.

**Q.** And the TGI (KM20L2 colon)?
**A.** Its TGI is > 100 µM.

**Q.** What about the TGI (SNB-78 CNS) of the same compound?
**A.** Its TGI is > 100000 nM.

**Q.** And the TGI (HL-60(TB) leukemia)?
**A.** The TGI was > 100000 nM.

**Q.** And the TGI (K-562 leukemia)?
**A.** The TGI was > 100 µM.

**Q.** What about the TGI (MOLT-4 leukemia) of the same compound?
**A.** The TGI was > 100 µM.

**Q.** And the TGI (SR leukemia)?
**A.** The TGI was > 100 µM.

**Q.** What about the TGI (LOX IMVI melanoma) of the same compound?
**A.** Its TGI is > 100000 nM.

**Q.** And the TGI (NCI-H460 lung)?
**A.** The TGI was > 100 µM.

**Q.** And the TGI (786-0 renal)?
**A.** Its TGI is > 100 µM.

**Q.** And the TGI (COLO 205 colon)?
**A.** Its TGI is > 100000 nM.

**Q.** What about the TGI (SW-620 colon) of the same compound?
**A.** Its TGI is > 100 µM.

**Q.** And the TGI (OVCAR-8 ovarian)?
**A.** Its TGI is > 100 µM.

**Q.** And the TGI (CCRF-CEM leukemia)?
**A.** Its TGI is > 100 µM.

**Q.** What about the TGI (M19-MEL melanoma) of the same compound?
**A.** Its TGI is > 100 µM.

**Q.** What about the TGI (DLD-1 colon) of the same compound?
**A.** The TGI was > 100 µM.

**Q.** And the TGI (A549 NSCLC)?
**A.** Its TGI is > 100 µM.

**Q.** What about the TGI (ACHN renal) of the same compound?
**A.** The TGI was > 100 µM.

**Q.** And the TGI (CAKI-1 renal)?
**A.** The TGI was > 100 µM.
